Measured values from patent US12060334B2, “3-substituted phenazine derivatives as antimicrobial agents” (University of Florida Research Foundation, Incorporated, priority 2021, dated 2024).
Converted amounts (≈) assume the structure as drawn. Where two headings read alike, the source gives them in different places. Marks after values point to notes of the source that are not given here.

Tests used:
[1] = pKa determination by UV-vis spectroscopy; format: physicochemical; conditions: UV-vis, 1:1 water:methanol phosphate buffers
Procedure: (c) pKa determination of select HP analogues.^36 Dissociation constants (pKa) for select HP analogues were determined using UV-vis spectroscopy and the Henderson-Hasselbalch equation. Buffers were prepared using potassium phosphate monobasic (KH2PO4) and sodium phosphate dibasic ([…]) in a 1:1 solution of water:methanol to achieve a pH range of 4.07 to 9.66 (ammonium hydroxide was added to prepare buffer pH over 9.80). Compounds were added from 10 mM stock solutions in dimethyl sulfoxide (25 μL) to 1975 μL of each buffer to each evaluate analogue to yield a final compound concentration of 125 μM. Full spectral scans were performed from 200 to 800 nm in 2 nm increments to determine λmax values for the protonated phenol (HA) and the deprotonated phenolate species (A^−). The change in absorption at each determined λmax in relation to pH was monitored in each buffer and plotted as absorbance versus pH for each species. The pKa was first estimated by determining the pH of the point of intersection of the two linear curves. The visual estimation was confirmed by plotting pH versus log [A^−/HA]. The resulting plot yielded a linear regression line with a Y-intercept corresponding to a calculated pKa value.

VRE 700221 = assay: MIC susceptibility assay (broth microdilution); conditions: 16 h; for MIC: Enterococcus, VRE, read-out: MIC VRE 700221
Procedure: The concentration range tested for each HP compound during this study was 0.05 to 50 μM. DMSO served as our vehicle and negative control in each microdilution MIC assay. DMSO was serially diluted with a top concentration of 0.5% v/v.

MRSE 35984 = assay: MIC susceptibility assay (broth microdilution); conditions: 16 h; for MIC: Staphylococcus epidermidis, MRSE, read-out: MIC MRSE 35984
Procedure: (§1) (MIC values were further supported by spectrophotometric readings at OD600). The concentration range tested for each HP compound during this study was 0.05 to 50 μM. DMSO served as our vehicle and negative control in each microdilution MIC assay. DMSO was serially diluted with a top concentration of 0.5% v/v.

MRSA-1707 = assay: MIC susceptibility assay (broth microdilution); conditions: 16 h; for MIC: Staphylococcus aureus, MRSA, read-out: MIC MRSA-1707, planktonic growth inhibition, 16 h, 37° C.
Procedure: as §1

E. faecalis OG1RF = assay: MIC susceptibility assay (broth microdilution); conditions: Enterococcus faecalis, 16 h, read-out: MIC E. faecalis OG1RF
Procedure: as §1

MRSA-44 = assay: MIC susceptibility assay (broth microdilution); conditions: Staphylococcus aureus, 16 h, read-out: MIC MRSA-44
Procedure: as §1

MRSE 35984 biofilms = assay: Calgary Biofilm Device (CBD) assay; conditions: Staphylococcus epidermidis, MRSE, read-out: MRSE 35984 MBC
HepG2 cells = assay: Alamar Blue cytotoxicity assay, HepG2; conditions: read-out: Hep G2 Cytotox. (IC50), 24-h
human red blood cells = assay: Hemolysis assay with red blood cells; conditions: human RBCs, 1 hour, 37° C.
Procedure: Hemolysis assays are used to determine the membrane-lysis activity of a compound, which is of particular interest to this work as membrane-lysing agents (e.g., QACs) can eradicate biofilms.
Cytotoxicity Assay against HEK-293 Cells.^48 The viability of HEK-293 cells was assessed by the MTT assay. The cells were cultured in DMEM medium containing 10% fetal bovine serum and 100 U/mL penicillin and streptomycin. The cells (10^4 cells/well) were seeded onto a 96-well plate and maintained at 37° C. in a humidified incubator under 5% CO2 overnight. […] After incubation at 37° C. for 72 hours, 10 μL of MTT (5 mg/mL) in PBS was added to each well and incubated for 4 hours, followed by the aspiration of the medium. Dimethyl sulfoxide (DMSO, 100 μL) was then added to each well to dissolve the MTT in the wells, and the plate was agitated for 1 hour. The optical density (OD) was measured at 570 nm using a UV/vis microplate spectrophotometer (BioTek). The percent inhibition was calculated as follows: Inhibition (%)=(1−test OD570/non-treated OD570)×100%. The data were analyzed by Origin. Hemolysis Assay with Red Blood Cells. […] The washing was repeated three times with the buffer. In 96-well plate, test compounds were added to the buffer from DMSO stocks. […] The plate was then incubated for 1 hour at 37° C. After incubation, the plate was centrifuged for 5 minutes at 3,500 rpm before 80 μL of the supernatant was transferred to another 96-well plate to obtain an optical density (OD) read at 405 nm. DMSO served as the negative control (0% hemolysis) while Triton X served as the positive control (100% hemolysis) in these experiments. The percent hemolysis was calculated as (OD405 of the compound treated RBCs−OD405 DMSO control)/(OD405 Triton X treated RBCs−OD405 buffer) from three independent experiments.

[2] = tested on: MRSA, MRSE and VRE strains; assay: MIC assays, summary statements over several Gram-positive strains; conditions: for MIC: read-out: MIC against MRSA, MRSE and VRE strains
Procedure: as §1

VRE 700221 biofilms = assay: Calgary Biofilm Device (CBD) assay; conditions: Enterococcus, read-out: VRE 700221 MBC
J774 MΦ = assay: Alamar Blue cytotoxicity assay, J774 macrophages; conditions: read-out: J774 MΦ Cytotox. (IC50), 24-h
Mtb CDC1551 = assay: microbe, parasite or virus in culture; format: cell-based, Mycobacterium tuberculosis
MRSA-1707 biofilms = assay: Calgary Biofilm Device (CBD) assay; conditions: Staphylococcus aureus, read-out: MRSA-1707 MBC
[3] = tested on: E. faecalis OG1RF biofilms; assay: Calgary Biofilm Device (CBD) assay; conditions: Enterococcus faecalis, OG1RFBIOFILMS, read-out: E.faecalis OG1RF MBC
HeLa cells = assay: LDH release assay for HeLa cytotoxicity; conditions: read-out: HeLa Cell Cytotox. (IC50), 24-h, tested at 25, 50 and 100 μM
S. aureus 129 = assay: MIC assay against clinical isolate; format: cell-based; conditions: Staphylococcus aureus
S. aureus 147 = assay: MIC assay against clinical isolate; format: cell-based
S. aureus 138 = assay: MIC assay against clinical isolate; format: cell-based; conditions: Staphylococcus aureus
S. aureus 156 = assay: MIC assay against clinical isolate; format: cell-based; conditions: Staphylococcus aureus, 156, read-out: MIC S. aureus 156
MRSA 1 = assay: MIC assay against clinical isolate; format: cell-based, S. aureus; conditions: Staphylococcus aureus
MRSA 2 = assay: MIC assay against clinical isolate; format: cell-based, S. aureus; conditions: Staphylococcus aureus
Mtb H37Ra = assay: MIC assay for Mtb H37Ra; conditions: seven days, 37° C.
[4] = Mycobacterium tuberculosis, CDC1551, 120 h
[5] = planktonic growth inhibition, 37° C.

O=[N+]([O-])c1ccc(O)cc1 [4-nitrophenol, reference compound]
pKa [1]: 7.52

Oc1cc(Cl)cc2nc3ccccc3nc12 [Compound 18, 3-Chlorophenazin-1-ol]
MIC (VRE 700221): > 50 µM
MIC (MRSE 35984): 18.8 µM (≈ 4.34 µg/mL)
MIC (MRSA-1707): 25 µM (≈ 5.77 µg/mL)

Cc1ccc2nc3c(O)cc(Cl)cc3nc2c1C [Compound 20, 3-Chloro-6,7-dimethylphenazin-1-ol]
MIC (E. faecalis OG1RF): 12.5 µM (≈ 3.23 µg/mL)

Oc1cc(Cl)cc2nc3c(Oc4ccccc4)cccc3nc12 [Compound 22, 3-Chloro-6-phenoxyphenazin-1-ol]
MIC (MRSE 35984): 3.13 µM (≈ 1.01 µg/mL)
MIC (MRSA-1707): 3.13 µM (≈ 1.01 µg/mL)
MIC (MRSA-44): 3.13 µM (≈ 1.01 µg/mL)

Cc1ccc2nc3c(O)c(Br)c(Cl)c(Br)c3nc2c1C [Compound 30, 2,4-Dibromo-3-chloro-6,7-dimethylphenazin-1-ol]
MBC (MRSE 35984 biofilms): 3.13 µM (≈ 1.3 µg/mL)
MIC (E. faecalis OG1RF): 0.2 µM (≈ 0.0833 µg/mL)
IC50 (HepG2 cells): > 200 µM
MIC (MRSE 35984): ≤ 0.05 µM
% Hemolysis at 200 μM (human red blood cells): ≤1%
MIC [2]: 0.05 to 0.1 µM (≈ 0.0208 to 0.0417 µg/mL)
MICs against all Gram-positive strains in the panel ([2]; result in words): sub-micromolar
MBC (VRE 700221 biofilms): 0.78 µM (≈ 0.325 µg/mL)
IC50 (J774 MΦ): > 200 µM
MIC (Mtb CDC1551; [4]): 3.62 µM (≈ 1.51 µg/mL)
MIC (MRSA-44): 0.08 µM (≈ 0.0333 µg/mL)

Cc1c(Br)ccc2nc3c(O)c(Br)c(Cl)c(Br)c3nc12 [Compound 31, 2,4,7-Tribromo-3-chloro-6-methylphenazin-1-ol]
MIC (E. faecalis OG1RF): 0.08 µM (≈ 0.0385 µg/mL)
MIC (VRE 700221): ≤ 0.05 µM
IC50 (HepG2 cells): > 200 µM
MIC (MRSE 35984): 0.1 µM (≈ 0.0481 µg/mL)
% Hemolysis at 200 μM (human red blood cells): 27%
IC50 (J774 MΦ): > 200 µM
MIC (Mtb CDC1551): 0.88 µM (≈ 0.424 µg/mL)
MIC (Mtb CDC1551; [4]): 0.88 µM (≈ 0.424 µg/mL)
MBC (MRSA-1707 biofilms): 75 µM (≈ 36.1 µg/mL)
MBC [3]: 1.56 µM (≈ 0.751 µg/mL)

Oc1c(Br)c(Cl)c(Br)c2nc3ccc(F)cc3nc12 [Compound 33, 2,4-Dibromo-3-chloro-8-fluorophenazin-1-ol]
MBC (MRSE 35984 biofilms): 12.5 µM (≈ 5.08 µg/mL)
IC50 (HepG2 cells): > 200 µM
% Hemolysis at 200 μM (human red blood cells): ≤1%
MIC (MRSA-1707): 0.15 µM (≈ 0.061 µg/mL)
MIC MRSA-1707 (MRSA-1707; [5]): 0.15 µM (≈ 0.061 µg/mL)
IC50 (HeLa cells): > 25 µM
IC50 (J774 MΦ): > 200 µM
MIC (Mtb CDC1551; [4]): 1.71 µM (≈ 0.695 µg/mL)
MIC (MRSA-44): 0.2 µM (≈ 0.0813 µg/mL)
MBC (MRSA-1707 biofilms): 12.5 µM (≈ 5.08 µg/mL)

Oc1c(Br)c(Cl)c(Br)c2nc3ccc(I)cc3nc12 [Compound 37, 2,4-Dibromo-3-chloro-8-iodophenazin-1-ol]
MBC (MRSE 35984 biofilms): 6.25 µM (≈ 3.21 µg/mL)
MIC (E. faecalis OG1RF): 1.56 µM (≈ 0.802 µg/mL)
MIC (MRSE 35984): 0.3 µM (≈ 0.154 µg/mL)
% Hemolysis at 200 μM (human red blood cells): 3.0%
MIC (MRSA-1707): 0.15 µM (≈ 0.0772 µg/mL)
MBC (VRE 700221 biofilms): 4.69 µM (≈ 2.41 µg/mL)
MBC (MRSA-1707 biofilms): 12.5 µM (≈ 6.43 µg/mL)

CCSc1c(Br)c(O)c2nc3cccc(C)c3nc2c1Br [Compound 45, 2,4-Dibromo-3-(ethylthio)-6-methylphenazin-1-ol]
MIC (S. aureus 129): 0.47 µM (≈ 0.201 µg/mL)
MBC (MRSE 35984 biofilms): 12.5 µM (≈ 5.35 µg/mL)
MIC (S. aureus 147; Staphylococcus aureus, 147, clinical isolate, read-out: MIC S. aureus 147): 0.47 µM (≈ 0.201 µg/mL)
MIC (E. faecalis OG1RF): 0.78 µM (≈ 0.334 µg/mL)
MIC (S. aureus 138): 0.47 µM (≈ 0.201 µg/mL)
IC50 (HepG2 cells): > 200 µM
MIC MRSE 35984 (MRSE 35984; [5]): 0.30^a μM
MIC (S. aureus 156): 0.47 µM (≈ 0.201 µg/mL)
% Hemolysis at 200 μM (human red blood cells): 5.7%
IC50 (J774 MΦ): > 100 µM
MIC (MRSA 1): 0.31 µM (≈ 0.133 µg/mL)
MIC (Mtb CDC1551; [4]): 1.69 µM (≈ 0.724 µg/mL)
MBC (MRSA-1707 biofilms): 50 µM (≈ 21.4 µg/mL)
MIC (MRSA 2): 0.63 µM (≈ 0.27 µg/mL)

Cc1cccc2nc3c(O)c(Br)c(SCCO)c(Br)c3nc12 [Compound 46, 2,4-Dibromo-3-((2-hydroxyethyl)thio)-6-methylphenazin-1-ol]
MIC (MRSA-1707): 6.25 µM (≈ 2.78 µg/mL)
MIC [2]: 2.35 to 12.5 µM (≈ 1.04 to 5.55 µg/mL)
MIC (MRSA-44): 6.25 µM (≈ 2.78 µg/mL)

CC(=O)NC[C@H]1CN(c2ccc(N3CCOCC3)c(F)c2)C(=O)O1 [Linezolid, reference compound]
MIC (MRSA-1707): 12.5 µM (≈ 4.22 µg/mL)
MBC (MRSA-1707 biofilms): 31.3 µM (≈ 10.6 µg/mL)

[H]/N=C(/N)N[C@H]1[C@H](O)[C@@H](O)[C@H](O[C@@H]2O[C@@H](C)[C@](O)(C=O)[C@H]2O[C@@H]2O[C@@H](CO)[C@H](O)[C@@H](O)[C@@H]2NC)[C@@H](N/C(N)=N\[H])[C@@H]1O [Streptomycin, reference compound]
MIC Mtb H37Ra (Mtb H37Ra): 1.32 µM (≈ 0.768 µg/mL)

CN[C@H](CC(C)C)C(=O)N[C@H]1C(=O)N[C@@H](CC(N)=O)C(=O)N[C@H]2C(=O)N[C@H]3C(=O)N[C@H](C(=O)N[C@H](C(=O)O)c4cc(O)cc(O)c4-c4cc3ccc4O)[C@H](O)c3ccc(c(Cl)c3)Oc3cc2cc(c3O[C@@H]2O[C@H](CO)[C@@H](O)[C@H](O)[C@H]2O[C@H]2C[C@](C)(N)[C@H](O)[C@H](C)O2)Oc2ccc(cc2Cl)[C@H]1O [Vancomycin, reference compound]
MBC (MRSE 35984 biofilms): 3 µM (≈ 4.35 µg/mL)
MIC (S. aureus 147; Staphylococcus aureus, 147, read-out: MIC S. aureus 147): 0.59 µM (≈ 0.855 µg/mL)
MIC (VRE 700221): > 100 µM
MIC VRE 700221 (VRE 700221; [5]): >100 µM
MBC (VRE 700221 biofilms): 750 µM (≈ 1090 µg/mL)
MBC [3]: 11.7 µM (≈ 17 µg/mL)
